# Measured values: patent publication US12410220B2, “Modulation of mammalian cell lineage by synthetic immodulins” (priority 2021, dated 2025)
# Marks after values point to notes of the source that are not given here. Peptide text beside a SMILES is read from it.
# Experiments:
# RXR-alpha LBD = target: T1, RXR-alpha LBD (Homo sapiens, UniProt P19793); assay: Experiment 4B binding to RXR-alpha LBD; settings: 100 ng/well protein; 800 ng/well SA488-labelled peptide, 2 hours
# T1 construct: purchased Abcam, Cambridge, MA
# T1 sequence (P19793 227-458 limits assumed): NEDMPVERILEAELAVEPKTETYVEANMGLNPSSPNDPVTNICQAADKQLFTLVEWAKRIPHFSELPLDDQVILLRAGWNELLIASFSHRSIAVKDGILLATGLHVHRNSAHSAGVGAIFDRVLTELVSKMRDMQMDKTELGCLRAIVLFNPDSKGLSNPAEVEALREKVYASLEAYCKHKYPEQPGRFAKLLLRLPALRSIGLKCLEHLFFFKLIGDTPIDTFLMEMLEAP
# Procedure: (§1) Experiment 4B. Binding of immodulin peptides to RXR isoforms and domains. 100 ng/well recombinant human RXRa-DBD or RXRa-LBD, or 400 ng/well full length RXR-alpha, RXR-beta, RXR-gamma or PPAR-gamma (Abcam, Cambridge, MA) was adsorbed to wells of a 96-well plate for 60 minutes at room temperature, then blocked with 200 uL 1% BSA in PBS buffer overnight. The plate was washed with PBS and 800 ng/well Streptavidin-Alexa 488 conjugate (SA488)-labelled peptide was added. The plate was incubated for 2 hours at room temperature, washed and counted in a fluorometer (excitation/emission 485/525 nm). Significant binding above background is also shown (**p<0.05). […] When tested against domains of RXR-alpha, these peptides bind the DNA-binding domain (DBD) better than the ligand-binding domain (LBD).
# RXR-alpha = target: T2, RXR-alpha (Homo sapiens, UniProt P19793); assay: Experiment 4B binding to full length RXR-alpha; settings: 400 ng/well protein; 800 ng/well SA488-labelled peptide, 2 hours
# T2 construct: 400 ng/well full length RXR-alpha, RXR-beta, RXR-gamma or PPAR-gamma; purchased Abcam, Cambridge, MA
# T2 sequence (P19793 1-462): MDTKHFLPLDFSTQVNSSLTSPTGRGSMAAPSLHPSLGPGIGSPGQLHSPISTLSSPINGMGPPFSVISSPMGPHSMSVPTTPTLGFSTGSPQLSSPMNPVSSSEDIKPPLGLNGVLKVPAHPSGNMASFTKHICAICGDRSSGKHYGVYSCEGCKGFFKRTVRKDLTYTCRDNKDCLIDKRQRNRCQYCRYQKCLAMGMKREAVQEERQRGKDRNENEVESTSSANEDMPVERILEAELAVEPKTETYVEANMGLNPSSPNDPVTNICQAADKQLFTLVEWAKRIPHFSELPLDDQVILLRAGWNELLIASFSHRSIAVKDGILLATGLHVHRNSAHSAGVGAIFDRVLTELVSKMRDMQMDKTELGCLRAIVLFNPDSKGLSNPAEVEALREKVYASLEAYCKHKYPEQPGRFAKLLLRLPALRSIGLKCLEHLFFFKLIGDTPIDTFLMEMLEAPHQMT
# Procedure: as §1
# [1] = Ferric iron-binding assay of biotinylated immodulin peptides; settings: N-terminally biotinylated peptide, 400 ng per well, 60 min room temperature; immX3AVD = 100
# Summary of the method: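 N-terminally biotinylated peptides (400 ng/well) were tested for ferric iron binding in two formats: streptavidin-A488 complexes on Fe3+-charged NTA plates, or streptavidin-captured peptide probed with FITC-NTA·Fe3+. Each step was 60 min at room temperature with fluorescence read at 525 nm. Values are normalized to immX3AVD control (100) and averaged across both protocols.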
# RXR-beta = target: T3, RXR-beta (Homo sapiens, UniProt P28702); assay: Experiment 4B binding to full length RXR-beta; settings: 400 ng/well protein; 800 ng/well SA488-labelled peptide, 2 hours
# T3 construct: 400 ng/well full length RXR-alpha, RXR-beta, RXR-gamma or PPAR-gamma; purchased Abcam, Cambridge, MA
# T3 sequence (P28702 1-533): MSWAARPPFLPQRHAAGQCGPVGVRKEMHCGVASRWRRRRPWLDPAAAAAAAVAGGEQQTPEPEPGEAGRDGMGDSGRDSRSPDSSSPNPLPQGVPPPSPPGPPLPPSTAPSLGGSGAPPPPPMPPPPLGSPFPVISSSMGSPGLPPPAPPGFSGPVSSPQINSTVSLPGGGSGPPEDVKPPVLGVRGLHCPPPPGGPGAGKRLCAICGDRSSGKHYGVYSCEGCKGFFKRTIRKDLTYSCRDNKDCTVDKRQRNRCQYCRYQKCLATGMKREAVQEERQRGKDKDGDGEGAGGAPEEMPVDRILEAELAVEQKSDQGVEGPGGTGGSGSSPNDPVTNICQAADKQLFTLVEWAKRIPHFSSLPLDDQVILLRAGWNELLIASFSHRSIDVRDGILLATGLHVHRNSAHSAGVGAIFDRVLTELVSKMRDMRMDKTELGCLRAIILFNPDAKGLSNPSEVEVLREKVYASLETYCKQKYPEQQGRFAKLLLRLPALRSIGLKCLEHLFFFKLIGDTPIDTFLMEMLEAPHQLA
# Procedure: as §1
# RXR-gamma = target: T4, RXR-gamma (Homo sapiens, UniProt P48443); assay: Experiment 4B binding to full length RXR-gamma; settings: 400 ng/well protein; 800 ng/well SA488-labelled peptide, 2 hours
# T4 construct: 400 ng/well full length RXR-alpha, RXR-beta, RXR-gamma or PPAR-gamma; purchased Abcam, Cambridge, MA
# T4 sequence (P48443 1-463): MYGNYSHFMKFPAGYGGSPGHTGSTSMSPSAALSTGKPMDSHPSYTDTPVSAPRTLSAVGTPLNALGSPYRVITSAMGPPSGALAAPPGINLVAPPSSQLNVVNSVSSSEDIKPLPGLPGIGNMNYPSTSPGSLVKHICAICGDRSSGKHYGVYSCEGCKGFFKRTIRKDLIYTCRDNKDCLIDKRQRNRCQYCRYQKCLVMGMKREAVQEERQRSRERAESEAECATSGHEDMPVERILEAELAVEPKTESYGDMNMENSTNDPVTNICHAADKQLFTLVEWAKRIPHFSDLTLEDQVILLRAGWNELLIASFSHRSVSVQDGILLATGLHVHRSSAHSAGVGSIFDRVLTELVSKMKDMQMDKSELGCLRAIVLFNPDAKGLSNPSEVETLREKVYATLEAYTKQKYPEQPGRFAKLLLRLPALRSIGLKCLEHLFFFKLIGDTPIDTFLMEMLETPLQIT
# Procedure: as §1
SMILES,Binding to RXR-alpha LBD relative to imm3 binding (=100) (RXR-alpha LBD),Binding to RXR-alpha relative to imm3 binding to RXR-gamma (=100) (RXR-alpha),"Ferric iron binding, fluorescence standardized to immX3AVD control peptide (100), Avg ± SD [1]",Binding to RXR-beta relative to imm3 binding (=100) (RXR-beta),Binding to RXR-gamma relative to imm3 binding (=100) (RXR-gamma)
CC[C@H](C)[C@H](NC(=O)CNC(=O)[C@H](CCCNC(=N)N)NC(=O)[C@H](CCCCN)NC(=O)[C@H](CCCNC(=N)N)NC(=O)CNC(=O)[C@H](CCCNC(=N)N)NC(=O)[C@H](CO)NC(=O)[C@@H]1CCCN1C(=O)[C@H](CCCCN)NC(=O)[C@H](CS)NC(=O)[C@H](CCC(N)=O)NC(=O)[C@H](CCCCN)NC(=O)[C@H](CCCNC(=N)N)NC(=O)[C@H](CCCCN)NC(=O)[C@H](Cc1ccc(O)cc1)NC(=O)[C@H](Cc1ccccc1)NC(=O)CNC(=O)[C@H](CCCCN)NC(=O)[C@@H](N)CCCNC(=N)N)C(=O)N[C@@H](CS)C(=O)N[C@@H](Cc1c[nH]c2ccccc12)C(=O)O [imm5] (H-RKGFYKRKQCKPSRGRKRGICW-OH; N-terminus and C-terminus assumed),1.8 ± 1.9,17.2 ± 0.3**,71.6 ± 6.6**,4.0 ± 0.8,90.0 ± 19.6**
CC(C)C[C@H](NC(=O)[C@H](C)NC(=O)[C@@H]1CCCN1C(=O)[C@H](Cc1c[nH]cn1)NC(=O)[C@H](CS)NC(=O)[C@H](CCC(N)=O)NC(=O)[C@H](CCCCN)NC(=O)[C@@H]1CCCN1C(=O)[C@H](Cc1c[nH]cn1)NC(=O)[C@H](Cc1ccccc1)NC(=O)[C@H](CC(N)=O)NC(=O)CNC(=O)[C@H](CC(N)=O)NC(=O)[C@@H](N)CCCNC(=N)N)C(=O)N[C@@H](CC(=O)O)C(=O)NCC(=O)N[C@@H](CCC(N)=O)C(=O)N[C@@H](CCCNC(=N)N)C(=O)NCC(=O)N[C@@H](CCCCN)C(=O)N[C@@H](CS)C(=O)N[C@@H](Cc1c[nH]c2ccccc12)C(=O)O [imm4] (H-RNGNFHPKQCHPALDGQRGKCW-OH; N-terminus and C-terminus assumed),3.0 ± 1.3,3.6 ± 1.3,3.3 ± 1.5**,0.3 ± 1.2,3.6 ± 7.0
N=C(N)NCCC[C@H](NC(=O)CNC(=O)[C@H](CCCCN)NC(=O)[C@H](CO)NC(=O)[C@@H]1CCCN1C(=O)[C@H](CCCNC(=N)N)NC(=O)[C@H](CS)NC(=O)[C@H](CCC(N)=O)NC(=O)[C@H](CCCCN)NC(=O)[C@H](CCCCN)NC(=O)[C@H](CCCCN)NC(=O)[C@H](Cc1ccc(O)cc1)NC(=O)[C@H](Cc1ccccc1)NC(=O)CNC(=O)[C@H](CCCCN)NC(=O)[C@@H](N)CCCCN)C(=O)N[C@@H](CCCCN)C(=O)N[C@@H](CCCNC(=N)N)C(=O)NCC(=O)N[C@@H](Cc1ccccc1)C(=O)N[C@@H](CS)C(=O)N[C@@H](Cc1c[nH]c2ccccc12)C(=O)O [imm3] (H-KKGFYKKKQCRPSKGRKRGFCW-OH; N-terminus and C-terminus assumed),0.6 ± 1.5,11.2 ± 1.0**,66.7 ± 4.7**,2.9 ± 1.1,100.0 ± 16.5**
N=C(N)NCCC[C@H](NC(=O)[C@H](CCCNC(=N)N)NC(=O)[C@H](CCC(N)=O)NC(=O)CNC(=O)[C@H](CCC(N)=O)NC(=O)[C@H](CO)NC(=O)[C@H](CO)NC(=O)[C@H](CCCNC(=N)N)NC(=O)[C@H](CS)NC(=O)[C@H](CCC(N)=O)NC(=O)[C@H](CCCNC(=N)N)NC(=O)[C@H](CCCCN)NC(=O)[C@H](CCCNC(=N)N)NC(=O)[C@H](Cc1ccc(O)cc1)NC(=O)[C@H](Cc1ccccc1)NC(=O)CNC(=O)[C@H](CCCNC(=N)N)NC(=O)[C@@H](N)Cc1c[nH]cn1)C(=O)NCC(=O)N1CCC[C@H]1C(=O)N[C@@H](CS)C(=O)N[C@@H](Cc1c[nH]c2ccccc12)C(=O)O [imm6] (H-HRGFYRKRQCRSSQGQRRGPCW-OH; N-terminus and C-terminus assumed),1.6 ± 1.4,12.9 ± 0.5**,65.9 ± 4.9**,4.7 ± 0.4,42.0 ± 11.6**
